Legend:
rat [1] = settings: Multigenerational reproductive toxicity study, sprague dawley, Oral, Gavage/Intubation, dose end: 1 generation
rat [2] = settings: Subchronic dermal toxicity, sprague dawley, Topical, dose end: 90 day, group: systemic, systemic / in life observation / clinical signs / desquamation + systemic / in life observation / clinical signs / erythema + systemic / in …
rabbit = settings: Prenatal developmental toxicity study, new zealand white, Oral, Gavage/Intubation, dose end: 28 GD
rat [3] = settings: Subchronic oral toxicity in rodents, sprague dawley, Gavage/Intubation, dose end: 90 day, group: systemic
rat [4] = settings: Sub-acute repeat dose toxicity; sprague dawley; Oral; Gavage/Intubation; dose end: 1 week; group: systemic; systemic / in life observation / food consumption / food consumption + systemic / in life observation / water consumption / water …
rat [5] = settings: Prenatal developmental toxicity study, other, Oral, Gavage/Intubation, dose end: 15 GD
rat [6] = settings: Subchronic oral toxicity in rodents, other, Feed, dose end: 13 week, group: systemic
mouse [7] = settings: Subchronic oral toxicity in rodents, cd1, Gavage/Intubation, dose end: 3 month, group: systemic, systemic / pathology microscopic / gallbladder / degeneration + systemic / pathology microscopic / gallbladder / hyperplasia + systemic / …
rat [8] = settings: Sub-acute repeat dose toxicity, sprague dawley, Oral, Gavage/Intubation, dose end: 1 month, group: systemic
primate = settings: Sub-acute repeat dose toxicity, macaque, Oral, Gavage/Intubation, dose end: 28 day, group: systemic
rat [9] = settings: Combined chronic toxicity/carcinogenicity; fischer; Oral; Feed; dose end: 105 week; group: systemic; systemic / in life observation / body weight / body weight + systemic / pathology microscopic / kidney / nephropathy + systemic / pathology …
mouse [10] = settings: Combined chronic toxicity/carcinogenicity, b6c3f1, Oral, Feed, dose end: 106 week, group: systemic
mouse [11] = settings: Carcinogenicity; b6c3f1; Oral; Feed; dose end: 103 week; group: systemic; systemic / in life observation / body weight / body weight
dog = settings: Subchronic oral toxicity in nonrodent, beagle, Capsule, dose end: 26 week, group: systemic
rat [12] = settings: Prenatal developmental toxicity study, other, Oral, Gavage/Intubation, dose end: 19 GD
rat [13] = settings: Combined chronic toxicity/carcinogenicity, fischer, Oral, Feed, dose end: 2 year, group: systemic
rat [14] = settings: Chronic toxicity, fischer, Oral, Feed, dose end: 103 week, group: systemic
rat [15] = settings: Multigenerational reproductive toxicity study, sprague dawley, Oral, Feed, dose end: 2 generation
mouse [16] = settings: Subchronic oral toxicity in rodents, b6c3f1, Feed, dose end: 13 week, group: systemic
rat [17] = settings: Carcinogenicity; fischer; Oral; Feed; dose end: 103 week; group: systemic; systemic / pathology microscopic / pituitary gland / hyperplasia
mouse [18] = settings: Carcinogenicity, b6c3f1, Oral, Feed, dose end: 2 year, group: systemic
rat [19] = settings: Subchronic oral toxicity in rodents, fischer, Feed, dose end: 13 week, group: systemic
[20] = group: parental, systemic / in life observation / clinical signs / fur (altered appearance) + systemic / in life observation / clinical signs / hunched …
[21] = group: reproductive, reproductive / offspring survival early / dead fetuses / dead fetuses
[22] = group: developmental, developmental / developmental malformation / bone / malpositioned + developmental / developmental malformation / bone / supernumerary + …
[23] = group: maternal, systemic / in life observation / body weight / body weight gain + systemic / in life observation / food consumption / food consumption
[24] = group: maternal, systemic / in life observation / body weight / body weight gain + systemic / in life observation / food consumption / food consumption + …
[25] = systemic / pathology microscopic / stomach / hyperplasia + systemic / in life observation / clinical signs / abnormal respiratory sounds + …
[26] = systemic / pathology microscopic / stomach / hyperplasia + systemic / pathology microscopic / stomach / edema + systemic / pathology …
[27] = group: developmental, developmental / developmental malformation / bone / fused + developmental / developmental malformation / bone / incomplete ossification
[28] = systemic / in life observation / body weight / body weight + systemic / in life observation / food consumption / food efficiency + systemic…
[29] = systemic / clinical chemistry / alanine aminotransferase (alt/sgpt) / alanine aminotransferase (alt/sgpt) + systemic / clinical chemistry / …
[30] = systemic / clinical chemistry / albumin / albumin + systemic / clinical chemistry / calcium / calcium + systemic / in life observation / …
[31] = systemic / in life observation / body weight / body weight
[32] = systemic / in life observation / body weight / body weight + systemic / pathology microscopic / blood / lymphoma nos + systemic / pathology …
[33] = systemic / clinical chemistry / cholesterol / cholesterol + systemic / clinical chemistry / glucose / glucose + systemic / hematology / …
[34] = systemic / in life observation / body weight / body weight + systemic / in life observation / body weight / body weight gain + systemic / in…
[35] = group: developmental, systemic / in life observation / body weight / fetal weight
[36] = group: maternal, systemic / in life observation / clinical signs / abnormal movements + systemic / in life observation / clinical signs / salivation
[37] = systemic / in life observation / body weight / body weight + systemic / in life observation / food consumption / food consumption + systemic…
[38] = systemic / pathology microscopic / skin / subcutaneous mass
[39] = group: offspring, systemic / in life observation / body weight / offspring (pup) weight + systemic / in life observation / body weight / offspring (pup) …
[40] = group: parental, systemic / in life observation / body weight / body weight + systemic / in life observation / body weight / body weight gain
[41] = group: reproductive, reproductive / offspring survival early / litter size / litter size + reproductive / offspring survival early / birth index / live birth …
[42] = systemic / in life observation / body weight / body weight + systemic / in life observation / mortality / mortality + systemic / organ …
[43] = systemic / organ weight / liver / relative to body weight + systemic / organ weight / liver / absolute
[44] = systemic / in life observation / body weight / body weight + systemic / in life observation / body weight / body weight gain
[45] = systemic / in life observation / body weight / body weight + systemic / in life observation / clinical signs / fur (altered appearance) + …

For O=S1CCON=C1c1cc2ccccc2s1 (centres undefined) [Bethoxazin], the LEL (rat [1]; [20]) was 10 mg/kg/day, the LOAEL (rat [1]; [20]) was 70 mg/kg/day and the NEL (rat [1]; [20]) was < 10 mg/kg/day. The NOAEL (rat [1]; [20]) was 30 mg/kg/day, the LEL (rat [1]; [21]) was 70 mg/kg/day and the LOAEL (rat [1]; [21]) was > 70 mg/kg/day. For the same compound, the NEL (rat [1]; [21]) was 30 mg/kg/day, the NOAEL (rat [1]; [21]) was ≥ 70 mg/kg/day and the LEL (rat [2]) was 0.1 mg/kg/day. For the same compound, the LOAEL (rat [2]) was 0.1 mg/kg/day, the NEL (rat [2]) was < 0.1 mg/kg/day and the NOAEL (rat [2]) was < 0.1 mg/kg/day. The LOAEL (rabbit; [22]) was 30 mg/kg/day, the NEL (rabbit; [22]) was 3 mg/kg/day and the LEL (rabbit; group: developmental, developmental / developmental malformation / bone / supernumerary) was 10 mg/kg/day. It also gave an LOAEL (rabbit; [23]) of 30 mg/kg/day, an LEL (rabbit; [24]) of 30 mg/kg/day and an NEL (rat [3]; [25]) of 1.25 mg/kg/day. For the same compound, the NOAEL (rat [3]; [25]) was 1.25 mg/kg/day, the LEL (rat [3]; [26]) was 5 mg/kg/day and the LOAEL (rat [3]; [26]) was 5 mg/kg/day. For the same compound, the LEL (rat [4]) was 50 mg/kg/day, the LOAEL (rat [4]) was 50 mg/kg/day and the NEL (rat [4]) was < 50 mg/kg/day. For the same compound, the NOAEL (rat [4]) was < 50 mg/kg/day.

Compound CC(C)Nc1nc(N)nc(Cl)n1 [Deethylatrazine] has an LEL (rat [5]; [27]) of 100 mg/kg/day, an LOAEL (rat [5]; [27]) of 100 mg/kg/day and an NEL (rat [5]; [27]) of 25 mg/kg/day. It also gave an NOAEL (rat [5]; [27]) of 25 mg/kg/day, an LEL (rat [5]; [23]) of 25 mg/kg/day and an LOAEL (rat [5]; [23]) of 25 mg/kg/day. The NEL (rat [5]; [24]) was 5 mg/kg/day, the NOAEL (rat [5]; [24]) was 5 mg/kg/day and the LOAEL (rat [6]; systemic / in life observation / body weight / body weight + systemic / in life observation / food consumption / food efficiency) was 35.1 mg/kg/day. It also gave an LEL (rat [6]; [28]) of 35.1 mg/kg/day, an NEL (rat [6]; [28]) of 3.2 mg/kg/day and an NOAEL (rat [6]; [28]) of 3.2 mg/kg/day.

For OCC(CO)n1cnc(-c2ccc(F)cc2)c1-c1ccnc(Oc2ccccc2)n1, the LEL (mouse [7]) was 30 mg/kg/day, the LOAEL (mouse [7]) was > 300 mg/kg/day and the NEL (mouse [7]) was < 30 mg/kg/day. For the same compound, the NOAEL (mouse [7]) was ≥ 300 mg/kg/day, the LOAEL (rat [8]; [29]) was > 2000 mg/kg/day and the NEL (rat [8]; [29]) was 3 mg/kg/day. For the same compound, the NOAEL (rat [8]; [29]) was ≥ 2000 mg/kg/day, the LEL (rat [8]; systemic / in life observation / body weight / body weight gain) was 30 mg/kg/day and the LOAEL (primate; [30]) was > 2000 mg/kg/day. The NEL (primate; [30]) was 10 mg/kg/day, the NOAEL (primate; [30]) was ≥ 2000 mg/kg/day and the LEL (primate; systemic / clinical chemistry / calcium / calcium + systemic / in life observation / clinical signs / feces, discoloration + systemic / …) was 300 mg/kg/day.

With c1ccc2n[nH]nc2c1 [1,2,3-Benzotriazole] the LEL (rat [9]) was 335 mg/kg/day, the LOAEL (rat [9]) was 335 mg/kg/day and the NEL (rat [9]) was < 335 mg/kg/day. For the same compound, the NOAEL (rat [9]) was < 335 mg/kg/day, the LOAEL (mouse [10]; [31]) was 1760 mg/kg/day and the NOAEL (mouse [10]; [31]) was < 1760 mg/kg/day. The LEL (mouse [10]; [32]) was 1760 mg/kg/day and the NEL (mouse [10]; [32]) was < 1760 mg/kg/day.

C=C(C)[C@H]1Cc2c(ccc3c2O[C@@H]2COc4cc(OC)c(OC)cc4[C@@H]2C3=O)O1 [Rotenone] was tested, and the LEL (mouse [11]) was 111 mg/kg/day, the LOAEL (mouse [11]) was > 242 mg/kg/day and the NEL (mouse [11]) was < 111 mg/kg/day. For the same compound, the NOAEL (mouse [11]) was ≥ 242 mg/kg/day, the LOAEL (dog; [33]) was 10 mg/kg/day and the NEL (dog; [33]) was 0.4 mg/kg/day. The NOAEL (dog; [33]) was 2 mg/kg/day, the LEL (dog; [34]) was 2 mg/kg/day and the LEL (rat [12]; [35]) was 6 mg/kg/day. For the same compound, the LOAEL (rat [12]; [35]) was 6 mg/kg/day, the NEL (rat [12]; [35]) was 3 mg/kg/day and the NOAEL (rat [12]; [35]) was 3 mg/kg/day. The LEL (rat [12]; [36]) was 0.75 mg/kg/day, the LOAEL (rat [12]; [36]) was 0.75 mg/kg/day and the NEL (rat [12]; [36]) was < 0.75 mg/kg/day. The NOAEL (rat [12]; [36]) was < 0.75 mg/kg/day, the LOAEL (rat [13]; systemic / in life observation / body weight / body weight + systemic / in life observation / food consumption / food consumption) was 1.88 mg/kg/day and the LEL (rat [13]; [37]) was 1.88 mg/kg/day. It also gave an NEL (rat [13]; [37]) of 0.375 mg/kg/day, an NOAEL (rat [13]; [37]) of 0.375 mg/kg/day and an LOAEL (rat [14]; systemic / pathology microscopic / pituitary gland / hyperplasia + systemic / pathology microscopic / parathyroid gland / hyperplasia) of 3.4 mg/kg/day. For the same compound, the NOAEL (rat [14]; systemic / pathology microscopic / pituitary gland / hyperplasia + systemic / pathology microscopic / parathyroid gland / hyperplasia + …) was 1.7 mg/kg/day, the LEL (rat [14]; [38]) was 1.8 mg/kg/day and the NEL (rat [14]; [38]) was < 1.8 mg/kg/day. The LEL (rat [15]; [39]) was 3.1 mg/kg/day, the LOAEL (rat [15]; [39]) was 3.1 mg/kg/day and the NEL (rat [15]; [39]) was 0.6 mg/kg/day. It also gave an NOAEL (rat [15]; [39]) of 0.6 mg/kg/day, an LEL (rat [15]; [40]) of 3 mg/kg/day and an LOAEL (rat [15]; [40]) of 3 mg/kg/day. It also gave an NEL (rat [15]; [40]) of 0.6 mg/kg/day, an NOAEL (rat [15]; [40]) of 0.6 mg/kg/day and an LEL (rat [15]; [41]) of 7 mg/kg/day. The LOAEL (rat [15]; [41]) was > 7 mg/kg/day, the NEL (rat [15]; [41]) was 3.1 mg/kg/day and the NOAEL (rat [15]; [41]) was ≥ 7 mg/kg/day. The LOAEL (mouse [16]; [42]) was > 7500 mg/kg/day, the NOAEL (mouse [16]; [42]) was ≥ 7500 mg/kg/day and the LEL (mouse [16]; [43]) was 90 mg/kg/day. For the same compound, the NEL (mouse [16]; [43]) was < 90 mg/kg/day, the LEL (rat [17]) was 3.4 mg/kg/day and the LOAEL (rat [17]) was > 3.4 mg/kg/day. The NEL (rat [17]) was 1.7 mg/kg/day, the NOAEL (rat [17]) was ≥ 3.4 mg/kg/day and the LOAEL (mouse [18]; [44]) was 111 mg/kg/day. For the same compound, the NOAEL (mouse [18]; [44]) was < 111 mg/kg/day, the LEL (mouse [18]; [34]) was 111 mg/kg/day and the NEL (mouse [18]; [34]) was < 111 mg/kg/day. For the same compound, the LOAEL (rat [19]; [45]) was > 60 mg/kg/day, the NEL (rat [19]; [45]) was 3.75 mg/kg/day and the NOAEL (rat [19]; [45]) was ≥ 60 mg/kg/day. It also gave an LEL (rat [19]; systemic / in life observation / body weight / body weight + systemic / pathology microscopic / bone marrow / atrophy + systemic / pathology…) of 7.5 mg/kg/day.

Reference: EPA's ToxRefDB 2
